Like-named read-outs stand apart in the source and are kept apart here.

For the test, the target named is α-glucosidase from Saccharomyes cerevisiae (Saccharomyces cerevisiae, UniProt P53341). In words: α-Glucosidase inhibition assay (PNPG substrate, OD 405 nm). It is filed as biochemical. Conditions: for inhibitory activity against α-glucosidase, in words: at 100 μM; for inhibition at 100 µM: read-out: %Inhibition (100 μM); for inhibition at 50 µM: read-out: %Inhibition (50 μM). The protocol:
The α-glucosidase inhibitory effect was assessed using a previously described method with slight modification. 0.2 U of α-glucosidase from Saccharomyes cerevisiae purchased from Sigma-Aldrich (St. Louis, MO, USA) was diluted to 0.1 M phosphate buffer consisting of Na2HPO4 and NaH2PO4 (pH 6.8). The assay was conducted in a 200 μL reaction system containing 148 μL of the buffer, 25 μL of diluted enzyme solution, and 2 μL of DMSO or sample (dissolved in DMSO). After 20 min of incubation in the 96-well plates at 37 °C, 25 μL of 0.4 mM 4-nitrophenyl-[…]-D-glucopyranoside (PNPG, Aladdin, Shanghai, China) was added as a substrate to start the enzymatic reaction. The plate was incubated for an additional 15 min at 37 °C, followed by the measurement of the optical density (OD). The final concentrations of tested compounds were between 0.39 and 100 μM. The OD was measured at an absorbance wavelength of 405 nm using a Microplate Reader (Tecan, Switzerland).

The mark [1] stands for this setting: α-glucosidase, compound at 100 μM.

Sequence of α-glucosidase from Saccharomyes cerevisiae (P53341 whole entry): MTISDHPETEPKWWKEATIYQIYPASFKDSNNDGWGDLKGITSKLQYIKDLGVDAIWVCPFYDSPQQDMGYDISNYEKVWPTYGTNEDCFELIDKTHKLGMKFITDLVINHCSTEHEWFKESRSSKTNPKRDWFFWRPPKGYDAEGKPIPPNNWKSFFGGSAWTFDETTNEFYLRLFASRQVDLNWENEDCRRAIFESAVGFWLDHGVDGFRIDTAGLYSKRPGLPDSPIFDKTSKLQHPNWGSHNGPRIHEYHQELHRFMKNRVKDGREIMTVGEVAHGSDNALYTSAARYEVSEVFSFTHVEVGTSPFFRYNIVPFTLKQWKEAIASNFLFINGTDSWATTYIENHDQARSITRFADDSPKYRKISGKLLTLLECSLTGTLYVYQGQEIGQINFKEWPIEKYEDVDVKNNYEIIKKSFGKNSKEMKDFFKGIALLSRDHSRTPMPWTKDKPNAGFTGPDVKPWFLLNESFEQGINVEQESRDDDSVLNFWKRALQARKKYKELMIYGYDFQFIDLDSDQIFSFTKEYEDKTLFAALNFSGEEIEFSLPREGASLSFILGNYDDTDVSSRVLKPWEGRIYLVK

The inhibition is the drop in the measured response relative to a control, in per cent. Turning to `COC(=O)[C@]1(Cc2ccc3c(c2)C[C@H](O)C(C)(C)O3)OC(=O)C(O)=C1c1ccc(O)cc1` [Compound 5, butyrolactone V], the “inhibitory activity against α-glucosidase, in words” value is listed as “negligible inhibitory activity”. The inhibition at 100 µM under setting [1] was found to be 21.6%.

With `COC(=O)[C@]1(Cc2ccc3c(c2)C[C@H](C(C)(C)O)O3)OC(=O)C(O)=C1c1ccc(O)cc1` [Compound 4, butyrolactone IV], the inhibition at 100 µM was determined as 37.3%.

With `CCOC(=O)[C@]1(Cc2ccc3c(c2)CC(O)C(C)(C)O3)OC(=O)C(O)=C1c1ccc(O)cc1` (stereo partly shown) [Compound 3, Aspernolide P], the inhibition at 100 µM under setting [1] stood at 26.4%.

As for `COC(=O)[C@]1(Cc2ccc3c(c2)CCC(C)(C)O3)OC(=O)C(O)=C1c1ccc(O)cc1` [Compound 8, aspernolide A], the “inhibitory activity against α-glucosidase, in words” value is reported as “significant inhibition” and the inhibition at 100 µM is 89.2%.

As to `COC(=O)[C@]1(Cc2ccc(O)c(CC=C(C)C)c2)OC(=O)C(O)=C1c1ccc(O)cc1` [Compound 6, butyrolactone I], the inhibition at 50 µM stood at 89.4% and the inhibition at 100 µM came out at 100%.

Turning to `COC(=O)[C@]1(Cc2ccc3c(c2)C[C@H](C(C)(C)O)O3)OC(=O)C(O)=C1c1ccccc1` [Compound 1, Aspernolide N], under setting [1], the inhibition at 100 µM was determined as 18.6%.

Regarding `CCOC(=O)[C@]1(Cc2ccc(O)c(CC=C(C)C)c2)OC(=O)C(O)=C1c1ccc(O)cc1` [Compound 7, butyrolactone VII], the inhibition at 50 µM is 98.7% and the inhibition at 100 µM is 100%.

As for `CCOC(=O)[C@]1(Cc2ccc3c(c2)C[C@H](C(C)(C)O)O3)OC(=O)C(O)=C1c1ccc(O)cc1` [Compound 2, Aspernolide O], under setting [1], the inhibition at 100 µM is 23.2%.

As to `COC(=O)[C@]1(Cc2ccc3c(c2)C=CC(C)(C)O3)OC(=O)C(O)=C1c1ccc(O)cc1` [Compound 9, aspernolide E], under setting [1], the inhibition at 100 µM was found to be 90.4%.

These data come from publication PMC6627487, “Butenolide Derivatives with α-Glucosidase Inhibitions from the Deep-Sea-Derived Fungus Aspergillus terreus YPGA10” (Marine Drugs, 2019).
